Measurements taken from patent EP4471048A1, “PEPTIDE INHIBITORS OF INTERLEUKIN-23 RECEPTOR” (Zealand Pharma A/S, priority 2023, dated 2024).
pIC50, pKi: −log10 of the molar value. *1 amine or outer side, *2 acyl side, *3 side chain or, on linkers, in order; H or OH if unused. Where a SMILES comes first, the peptide text is derived from it. Bridges are numbered along the chain shown (N, C = ends). [ ]: non-standard residue; d: D form. hAad = O=C([C@H](CCCCC(=O)[*:3])N[*:1])[*:2]; X7 = O=C(C[C@H](CCCN[*:3])N[*:2])[*:1]; 2Nal = N[C@@H](Cc1ccc2ccccc2c1)C(=O)O; AEF = NCCOc1ccc(C[C@H](N)C(=O)O)cc1; X1 = O=C(Cc1ccc(CN[*:1])cc1)[*:2]; 3Pal = N[C@@H](Cc1cccnc1)C(=O)O; αMeL = CC(C)C[C@](C)(N)C(=O)O; CH2COCH2 = O=C(C[*:1])C[*:2]; dDab = NCC[C@@H](N)C(=O)O; Dab = NCC[C@H](N)C(=O)O; X6 = O=C(CN[*:2])[*:1]

Assays:
[1] = target: T1, human IL-23R (Homo sapiens, UniProt Q5VWK5); test: biochemical; settings: for Emax: read-out: % displacement (hIL-23R NIuc)
T1 sequence (Q5VWK5 22-629): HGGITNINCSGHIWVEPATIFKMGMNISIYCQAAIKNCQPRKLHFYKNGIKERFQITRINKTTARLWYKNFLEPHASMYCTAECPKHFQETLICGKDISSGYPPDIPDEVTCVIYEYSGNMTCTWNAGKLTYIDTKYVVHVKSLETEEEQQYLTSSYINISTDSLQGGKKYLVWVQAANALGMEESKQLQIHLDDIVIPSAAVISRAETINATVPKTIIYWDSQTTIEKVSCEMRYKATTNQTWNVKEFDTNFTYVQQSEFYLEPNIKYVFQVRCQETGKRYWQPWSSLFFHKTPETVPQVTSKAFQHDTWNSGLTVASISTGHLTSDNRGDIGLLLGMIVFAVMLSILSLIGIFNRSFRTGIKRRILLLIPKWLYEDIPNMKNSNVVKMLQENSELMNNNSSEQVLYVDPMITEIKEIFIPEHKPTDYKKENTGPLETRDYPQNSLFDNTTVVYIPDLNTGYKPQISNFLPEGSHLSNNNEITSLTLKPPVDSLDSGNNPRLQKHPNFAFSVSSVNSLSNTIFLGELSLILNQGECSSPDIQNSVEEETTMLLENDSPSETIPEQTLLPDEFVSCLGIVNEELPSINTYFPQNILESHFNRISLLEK
Outline: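 Membranes from HEK293 cells stably expressing Nluc-tagged human IL-23R were incubated 2 h at room temperature with test compound and a fluorophore-labelled tracer. After substrate addition, loss of BRET (TAMRA over luciferase emission) reported tracer displacement. A 4PL fit gave IC50 values.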

[2] = target: IL-23 mediated signalling (Homo sapiens, UniProt Q5VWK5); test: Functional inhibition of IL-23 mediated STAT3 signalling (phospho-STAT3 MSD) in DB cells; type: cell-based; settings: Table 3-2, DB cells, hIL-23 at EC80; for Emax: maximal inhibitory response, read-out: hIL-23 (pSTAT3) antagonist % inhibition; for pIC50: read-out: hIL-23 (pSTAT3) antagonist IC50
Excerpt: Upon binding of IL-23, the IL-23R forms a heterodimer signalling complex together with IL-12R β1, which through the JAK2/STAT3 pathway promotes phosphorylation of STAT3 to form phospho-STAT3.
For compounds tested in this assay, the response was normalized relative to control values to calculate the IC50 and maximal inhibitory response from a concentration response curve of the compound in presence of a fixed concentration of human IL-23.
The assay procedure was as follows. […] Following preincubation of the DB cells with inhibitor for 15 min in a cell incubator (37 °C, 5% CO2), 20 µL of the prepared 3X the EC80 of hIL-23 solution was added to each well and incubated for 90 min in a cell incubator (37 °C, 5% CO2). For some wells buffer only or IL-23 only corresponding to the EC80 was added to obtain readouts needed for normalization. To terminate the assay, the plate was spun at 1000 G for 5 min to pellet cells, the supernatant removed using an 8-channel manual pipette, and then added 50 µL/well Complete Lysis Buffer from the MSD STAT3 kit (Cat# K150SVD, Mesoscale) to the cell pellet. To completely lyse cells to release phospho-STAT3 for detection, the plate was shaken for 10 min at room temperature (500 rpm) sealed with aluminium foil and placed at -80 °C for a minimum of 15 min. Detection of the phospho-STAT3 level in the cell lysate from the individual wells was determined using the MSD STAT3 kit (Cat# K150SVD, Mesoscale) and read on a Meso QuickPlex SQ 120 plate reader (Mesoscale).
For data analysis raw data counts from the Meso QuickPlex SQ 120 plate reader were normalized relative to the response by the EC80 of h1L-23 alone (no compound added) and the buffer level. Compound potency (IC50) and maximal inhibitory response (% inhibition) were estimated by computer-aided curve fitting using a 4-parameter logistic (4PL) nonlinear model. […] Table 3-2: hIL-23 (pSTAT3) antagonist IC50 and % inhibition

% displacement (hIL-23R NIuc) [1]	pIC50 [1]	Emax [2]	Emax [1]	pIC50 [2]	pKi [1]	SMILES
104%	10.77	99%	–	–	–	CC(C)C[C@]1(C)NC(=O)[C@H](Cc2ccc3ccccc3c2)NC(=O)[C@H](Cc2ccc(OCCN)cc2)NC(=O)[C@@H]2CCC(=O)N[C@H](CCNC(=O)CCCC[C@@H](C(=O)N[C@@H](CCN)C(=O)N[C@@H](Cc3cccnc3)C(N)=O)NC1=O)C(=O)N[C@@H]([C@@H](C)O)C(=O)N[C@@H](C(C)C)C(=O)N[C@@H](Cc1c[nH]c3ccccc13)C(=O)N[C@@H](CCC(N)=O)C(=O)N2 [Compound 7, [{d}Dab](1c)(6c)^†TVWQE(6c)[Y(2-aminoethoxy)][2-Nal][2-Me-Leu][2-Amino-6-carboxyhexanoyl](1 c)[Dab][3-(3-Pyridyl)-Ala]-[NH2]] ([dDab]TVWQE[AEF][2Nal][αMeL][hAad][Dab][3Pal]-NH2; lactam 1-10, N-6)
104%	–	100%	–	–	–	CC(C)C[C@]1(C)NC(=O)[C@H](Cc2ccc3ccccc3c2)NC(=O)[C@H](Cc2ccc(OCCN)cc2)NC(=O)[C@@H]2CCC(=O)N[C@@H](CCCNC(=O)CC[C@@H](C(=O)N[C@@H](CCN)C(=O)N[C@@H](Cc3cccnc3)C(N)=O)NC1=O)CC(=O)N[C@@H]([C@@H](C)O)C(=O)N[C@@H](C(C)C)C(=O)N[C@@H](Cc1c[nH]c3ccccc13)C(=O)N[C@@H](CCC(N)=O)C(=O)N2 [Compound 12, [bLys](1c)(6c)^†TVWQE(6c)[Y(2-aminoethoxy)][2-Nal][2-Me-Leu]E(1c)[Dab][3-(3-Pyridyl)-Ala]-[NH2]] (TVWQE[AEF][2Nal][αMeL]E[Dab][3Pal]-NH2; linker N-5-9 via X7)
–	9.54	97%	100%	–	–	CNC(=O)[C@H](Cc1cccnc1)NC(=O)[C@H](CCN)NC(=O)[C@@H]1CCC(=O)NCCCC[C@@H]2NC(=O)CC[C@H](NC(=O)[C@H](CCC(N)=O)NC(=O)[C@H](Cc3c[nH]c4ccccc34)NC(=O)[C@H]([C@@H](C)O)NC2=O)C(=O)N[C@@H](Cc2ccc(OCCN)cc2)C(=O)N[C@@H](Cc2ccc3ccccc3c2)C(=O)N[C@@](C)(CC(C)C)C(=O)N1 [Compound 36, K(1c)(6c)^†TWQE(6c)[Y(2-aminoethoxy)][2-Nal][2-Me-Leu]E(1c)[Dab][3-(3-Pyridyl)-Ala]-[NHMe]] (KTWQE[AEF][2Nal][αMeL]E[Dab][3Pal]-NHMe; lactam 1-9, N-5)
102%	8.59	99%	–	7.89	8.68	CC(=O)N[C@H]1CCSC[C@@H](C(=O)N[C@@H](Cc2ccc(OCCN)cc2)C(=O)N[C@@H](Cc2c[nH]c3ccccc23)C(=O)N[C@@](C)(CCCCN)C(=O)N[C@@H](CCC(=O)O)C(=O)N[C@@H](CC(N)=O)C(=O)NCC(N)=O)NC(=O)[C@H](CCC(N)=O)NC(=O)[C@H](Cc2c[nH]c3ccccc23)NC(=O)[C@H]([C@@H](C)O)NC(=O)[C@H](CCC(N)=O)NC1=O [Compound C, [Ac]-[Abu](16i)QTWQC(16i)[Y(2-aminoethoxy)]W[2-Me-Lys]ENG-[NH2], reference compound]
100%	10.24	103%	–	8.11	10.32	CC(C)C[C@]1(C)NC(=O)[C@H](Cc2ccc3ccccc3c2)NC(=O)[C@H](Cc2ccc(OCCN)cc2)NC(=O)[C@@H]2CSCC(=O)CSC[C@H](NC(=O)[C@H](CO)NC(=O)Cc3ccc(cc3)CNC(=O)CC[C@@H](C(=O)N[C@@H](CCCNC(=N)N)C(N)=O)NC1=O)C(=O)N[C@@H](Cc1c[nH]c3ccccc13)C(=O)N[C@@H](CCC(N)=O)C(=O)N2 [Ref 52, [4-Aminomethyl-phenylacetyl](1c)*SC(2a)WQC(2a)[Y(2-aminoethoxy)][2-Nal][2-Me-Leu]E(1c)R-[NH2], reference compound] ([X1]SCWQC[AEF][2Nal][αMeL]ER-NH2; linker 3-6 via CH2COCH2; lactam N-10)
101%	9.14	98%	–	7.68	9.22	CC(C)C[C@]1(C)NC(=O)[C@H](Cc2ccc3ccccc3c2)NC(=O)[C@H](Cc2ccc(OCCN)cc2)NC(=O)[C@@H]2CCNC(=O)CC[C@H](NC(=O)[C@H](CO)NC(=O)Cc3ccc(cc3)CNC(=O)CC[C@@H](C(=O)N[C@@H](CCN)C(N)=O)NC1=O)C(=O)N[C@@H](Cc1c[nH]c3ccccc13)C(=O)N[C@@H](CCC(N)=O)C(=O)N2 [Ref 125, [4-Aminomethyl-phenylacetyl](1c)*SE(2c)WQ[Dab](2c)[Y(2-aminoethoxy)][2-Nal][2-Me-Leu]E(1c)[Dab]-[NH2], reference compound]

The remaining lines, values behind:

SMILES	% displacement (hIL-23R NIuc) [1]	pIC50 [1]	Emax [2]	Emax [1]	pIC50 [2]	pKi [1]
CC[C@H](C)[C@@H]1NC(=O)[C@@H]2CCCCNC(=O)CC[C@@H](C(=O)N[C@@H](CCN)C(=O)N[C@@H](Cc3cccnc3)C(N)=O)NC(=O)C(C)(C)NC(=O)[C@H](Cc3ccc4ccccc4c3)NC(=O)[C@H](Cc3ccc(C)cc3)NC(=O)[C@H](CCC(=O)N2)NC(=O)[C@H](CCC(N)=O)NC(=O)[C@H](Cc2c[nH]c3ccccc23)NC(=O)[C@H](C(C)C)NC1=O [Compound 17, K(1c)(6c)^†IVWQE(6c)[F(4-Me)][2-Nal][Aib]E(1c)[Dab][3-(3-Pyridyl)-Ala]-[NH2]]	–	–	99%	107%	8.54	–
CNC(=O)[C@H](Cc1cccnc1)NC(=O)[C@H](CCN)NC(=O)[C@@H]1CCCCNC(=O)CC[C@@H]2NC(=O)CC[C@H](NC(=O)[C@H](CCC(N)=O)NC(=O)[C@H](Cc3c[nH]c4ccccc34)NC(=O)[C@H]([C@@H](C)O)NC2=O)C(=O)N[C@@H](Cc2ccc(OCCN)cc2)C(=O)N[C@@H](Cc2ccc3ccccc3c2)C(=O)N[C@@](C)(CC(C)C)C(=O)N1 [Compound 39, E(1c)(6c)^†TWQE(6c)[Y(2-aminoethoxy)][2-Nal][2-Me-Leu]K(1c)[Dab][3-(3-Pyridyl)-Ala]-[NHMe]] (ETWQE[AEF][2Nal][αMeL]K[Dab][3Pal]-NHMe; lactam 1-9, N-5)	98%	9.19	99%	–	–	–
CNC(=O)[C@H](Cc1cccnc1)NC(=O)[C@H](CCN)NC(=O)[C@@H]1CCC(=O)NCC(=O)NCCCC[C@@H]2NC(=O)CC[C@H](NC(=O)[C@H](CCC(N)=O)NC(=O)[C@H](Cc3c[nH]c4ccccc34)NC2=O)C(=O)N[C@@H](Cc2ccc(OCCN)cc2)C(=O)N[C@@H](Cc2ccc3ccccc3c2)C(=O)N[C@@](C)(CC(C)C)C(=O)N1 [Compound 46, [K(G)](1c)(6c)^†WQE(6c)[Y(2-aminoethoxy)][2-Nal][2-Me-Leu]E(1c)[Dab][3-(3-Pyridyl)-Ala]-[NHMe]] (KWQE[AEF][2Nal][αMeL]E[Dab][3Pal]-NHMe; linker 1-8 via X6; lactam N-4)	–	8.14	102%	104%	–	–
CC(=O)N[C@H]1CCCCNC(=O)CC[C@@H](C(=O)N[C@@H](CCCNC(=N)N)C(N)=O)NC(=O)[C@H](CC(C)C)NC(=O)[C@H](Cc2ccc3ccccc3c2)NC(=O)[C@H](Cc2c[nH]c3ccccc23)NC(=O)[C@@H]2CSCC(=O)CSC[C@H](NC(=O)[C@H](CO)NC1=O)C(=O)N[C@@H](Cc1c[nH]c3ccccc13)C(=O)N[C@@H](CCC(N)=O)C(=O)N2 [Ref 18, [Ac]-K(1c)SC(2a)WQC(2a)W[2-Nal]LE(1c)R-[NH2], reference compound] (HELM PEPTIDE1{[ac].K.S.C.W.Q.C.W.[O=C([C@H](Cc1ccc2ccccc2c1)N[*:1])[*:2]].L.E.R.[am]}|CHEM1{[O=C(C[*:1])C[*:2]]}$PEPTIDE1,PEPTIDE1,2:R3-11:R3|PEPTIDE1,CHEM1,4:R3-1:R1|PEPTIDE1,CHEM1,7:R3-1:R2$$$V2.0)	103%	8.46	97%	–	7.74	8.55
